Results taken from the Kinase Knowledgebase extract (Sharma et al. 2016).

Target: PIK3CA (human) (UniProt P42336)
Assay: Inhibition of PIK3CA Kinase Activity

PIK3CA (human), sequence (P42336 whole entry, looked up): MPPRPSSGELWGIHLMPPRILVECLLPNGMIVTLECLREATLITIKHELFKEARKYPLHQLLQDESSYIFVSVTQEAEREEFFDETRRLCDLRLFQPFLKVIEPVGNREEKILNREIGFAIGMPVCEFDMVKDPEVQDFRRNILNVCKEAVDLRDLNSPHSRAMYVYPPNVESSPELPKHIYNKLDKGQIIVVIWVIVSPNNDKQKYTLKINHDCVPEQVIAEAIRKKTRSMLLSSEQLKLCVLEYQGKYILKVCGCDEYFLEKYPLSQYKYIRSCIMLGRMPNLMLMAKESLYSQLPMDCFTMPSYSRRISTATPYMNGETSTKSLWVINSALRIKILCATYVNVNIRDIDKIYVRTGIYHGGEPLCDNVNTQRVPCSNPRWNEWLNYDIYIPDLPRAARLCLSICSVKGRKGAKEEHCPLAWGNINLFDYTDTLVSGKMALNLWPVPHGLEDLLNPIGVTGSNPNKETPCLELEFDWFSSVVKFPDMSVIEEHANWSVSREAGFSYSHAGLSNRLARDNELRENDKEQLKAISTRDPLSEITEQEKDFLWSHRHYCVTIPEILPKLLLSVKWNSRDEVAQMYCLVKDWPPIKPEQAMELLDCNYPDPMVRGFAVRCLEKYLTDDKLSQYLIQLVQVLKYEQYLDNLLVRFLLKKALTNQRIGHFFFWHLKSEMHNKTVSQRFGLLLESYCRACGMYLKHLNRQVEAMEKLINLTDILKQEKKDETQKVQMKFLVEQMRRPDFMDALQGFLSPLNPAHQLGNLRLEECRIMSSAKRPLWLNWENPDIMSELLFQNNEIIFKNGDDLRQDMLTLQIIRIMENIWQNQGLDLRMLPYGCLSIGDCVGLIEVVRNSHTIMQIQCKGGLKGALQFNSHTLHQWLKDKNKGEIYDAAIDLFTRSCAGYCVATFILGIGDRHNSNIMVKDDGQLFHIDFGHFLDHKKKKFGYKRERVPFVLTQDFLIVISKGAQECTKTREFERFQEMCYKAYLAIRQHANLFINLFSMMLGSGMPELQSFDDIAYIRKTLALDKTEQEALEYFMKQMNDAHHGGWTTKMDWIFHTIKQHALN

SMILES | IC50 [nM]
CC1(C)CCc2ncnc(N3CCOc4ccc(-c5cnc(F)c(NS(C)(=O)=O)c5)cc4C3)c2C1 | 50 to 250
Cc1ncnc(N2CCOc3ccc(-c4cnc(N)s4)cc3C2)c1Cc1ccc(F)cc1 | ≤ 10
CCNc1nc2ccc(-c3ccc4c(c3)CN(c3ccnc5ccc(OC)cc35)CCO4)cc2[nH]1 | 10 to 50
Nc1nc2ccc(-c3ccc4c(c3)CN(c3nc(-c5ccccc5)nc5ccccc35)CCO4)cc2[nH]1 | 50 to 250
CC1(C)CCc2ncnc(N3CCOc4ccc(-c5cnc6[nH]c(CF)nc6c5)cc4C3)c2C1 | 10 to 50
CCNCc1nc2c(c(N3CCOc4ccc(-c5ccc6nc(C)[nH]c6c5)cc4C3)n1)CC(C)(C)CC2 | ≤ 10
Cc1nc2ccc(-c3ccc4c(c3)CN(c3ncnc5ccc(S(C)(=O)=O)cc35)CCO4)cc2[nH]1 | 250 to 1000
COC(=O)Nc1nc2ccc(-c3ccc4c(c3)CN(c3ncnc5ccccc35)CCO4)cc2[nH]1 | 10 to 50
Cc1nc2ncc(-c3ccc4c(c3)CN(c3nc(CNCC(F)F)nc5c3CC(C)(C)CC5)CCO4)cc2[nH]1 | 10 to 50
CC1=Cc2ncnc(N3CCOc4ccc(-c5cnc(N)c(S(=O)(=O)NC[C@H]6CCN(C)C6)c5)cc4C3)c2CC1(C)C | 10 to 50
Cc1nc(CN(C)C)nc(N2CCOc3ccc(-c4cnc5sc(N)nc5c4)cc3C2)c1C(C)C | ≤ 10
c1ccc2c(N3CCOc4ccc(-c5ccc6scnc6c5)cc4C3)ccnc2c1 | 250 to 1000
CC1(C)CCc2ncnc(N3CCOc4ccc(-c5cnc6sc(N)nc6c5)cc4C3)c2C1 | 10 to 50
COc1ccc2c(N3CCOc4ccc(-c5cccc(C(=O)O)c5)cc4C3)nc(C)nc2c1 | 250 to 1000
COc1ccc2c(N3CCOc4ccc(-c5cnc(NC(C)=O)s5)cc4C3)nc(C)nc2c1 | 10 to 50
Cc1ncnc(N2CCOc3ccc(-c4ccc5nc(N)[nH]c5n4)cc3C2)c1Cc1ccc(F)cc1 | 10 to 50
COC(=O)Nc1nc2ccc(-c3ccc4c(c3)CN(c3nccc5ccccc35)CCO4)cc2[nH]1 | 50 to 250
COc1c(Br)ccc2c(N3CCOc4ccc(-c5ccc6nc(C)[nH]c6c5)cc4C3)ncnc12 | 10 to 50
CCc1ncnc(N2CCOc3ccc(-c4ccc5nc(C)[nH]c5c4)cc3C2)c1C | 50 to 250
Cc1nc2cc(-c3ccc4c(c3)CN(c3nc(C(C)N)nc5c3CC(C)(C)CC5)CCO4)ccc2[nH]1 (stereo not drawn) | 10 to 50
CN(c1cc(-c2ccc3c(c2)CN(c2ncnc4c2CC(C)(C)CC4)CCO3)cnc1Cl)S(C)(=O)=O | 250 to 1000
CC1(C)CCc2ncnc(N3CCOc4ccc(-c5ccc6nc(NCCF)[nH]c6c5)cc4C3)c2C1 | 10 to 50

SMILES | IC50 [nM]
CC1(C)CCc2ncnc(N3CCOc4ccc(-c5cnc(N)c(S(=O)(=O)NC[C@H]6CCCN6)c5)cc4C3)c2C1 | 50 to 250
Cc1nc2ncc(-c3ccc4c(c3)CN(c3ncnc(N5CCOCC5)c3C)CCO4)cc2[nH]1 | 50 to 250
Cc1nc2ccc(-c3ccc4c(c3)CN(c3ncnc(C)c3Cc3cc(F)cc(Cl)c3)CCO4)cc2[nH]1 | 10 to 50
CC1(C)CCc2ncnc(N3CCOc4ccc(-c5cnc(N)c(S(=O)(=O)N6CC(N)C6)c5)cc4C3)c2C1 | 10 to 50
Cc1ncnc(N2CCOc3ccc(-c4cc5[nH]c(N)nc5cn4)cc3C2)c1Cc1ccc(F)cc1 | 50 to 250
Cc1nc2cc(-c3ccc4c(c3)CN(c3nc(CN(C)C)nc(C)c3C(C)C)CCO4)ccc2[nH]1 | ≤ 10
CC1(C)CCc2ncnc(N3CCOc4ccc(-c5cnc(N)c(S(=O)(=O)NC(C)(C)CN)c5)cc4C3)c2C1 | 50 to 250
Cc1nc2ccc(-c3ccc4c(c3)CN(c3ncnc5c(F)cccc35)CCO4)cc2[nH]1 | 50 to 250
CCc1nc2ccc(-c3ccc4c(c3)CN(c3ncnc5c3CC(C)(C)CC5)CCO4)cc2[nH]1 | 50 to 250
Cc1nc2ncc(-c3ccc4c(c3)CN(c3nc(CNCCF)nc5c3CC(C)(C)CC5)CCO4)cc2[nH]1 | 10 to 50
CC1(C)CCc2ncnc(N3CCOc4ccc(-c5cnc(N)c(S(=O)(=O)N6CC(C)(N)C6)c5)cc4C3)c2C1 | 10 to 50
Cc1nc2ccc(-c3ccc4c(c3)CN(c3nc(CN5CC[C@H](F)C5)nc5c3CC(C)(C)CC5)CCO4)cc2[nH]1 | 10 to 50
Cc1nc2ncc(-c3ccc4c(c3)CN(c3ncnc5c3CCC(C)(c3ccccc3)C5)CCO4)cc2[nH]1 (stereo not drawn) | 10 to 50
Cc1ncnc(N2CCOc3ccc(-c4cnc5nc(N)[nH]c5c4)cc3C2)c1Cc1ccc(F)cc1 | ≤ 10
Cc1nc2ccc(-c3ccc4c(c3)CN(c3ncnc5c(C)cccc35)CCO4)cc2[nH]1 | 10 to 50
Cc1nc2ccc(-c3ccc4c(c3)CN(c3ncnc5cc(Cl)ccc35)CCO4)cc2[nH]1 | 50 to 250
c1ccc2c(N3CCOc4ccc(-c5ccc6nc[nH]c6c5)cc4C3)ccnc2c1 | 10 to 50
Nc1nc2ncc(-c3ccc4c(c3)CN(c3ncnc5ccc(Br)cc35)CCO4)cc2[nH]1 | ≤ 10
COCCNS(=O)(=O)c1cc(-c2ccc3c(c2)CN(c2ncnc4c2CC(C)(C)CC4)CCO3)cnc1N | 10 to 50
Cc1nc2cc(-c3ccc4c(c3)CN(c3nc(CNCCF)nc(C)c3C(C)C)CCO4)ccc2[nH]1 | 10 to 50
Cc1nc2ncc(-c3ccc4c(c3)CN(c3nc(CN5CC[C@@H](F)C5)nc5c3CC(C)(C)CC5)CCO4)cc2[nH]1 | ≤ 10
